{"source": "patent US7067697B2", "about": "“Cationic liposomes for gene transfer” (priority 1998, dated 2006)", "key": {"CD-1 mouse lungs": {"test_system": "CD-1 mouse lungs", "assay": "In vivo transfection of CD-1 mice with i.v. lipoplex (pCMV-Luc), luciferase activity assay in organs", "settings": "for Relative Activity of MMET Analogues-Cholesterol Liposomes: cationic lipid:cholesterol 1:1 mol/mol, in vivo transfection to the lungs, MMET = 100; for transfection level versus trimethylammonium counterparts (DOTMA, DOTAP): 4:1 +/− charge ratio, pure cationic lipid liposomes; for rank order of transfection activity in lungs: liposomes of pure cationic lipid, charge ratio 8:1 to 16:1, 12 hours after i.v.", "description": "Cationic liposomes of formulas (I-VI) were prepared from pure cationic lipids or as equimolar mixtures of a cationic lipid and neutral lipids, such as DOPE, or cholesterol, using extrusion or sonication methods. One hundred μmoles of a cationic lipid or one hundred μmoles each of a cationic lipid and a selected neutral lipid were dissolved in a round bottom flask. The organic solvent was then evaporated under vacuum at 45° C. to form a thin lipid film. The residual solvent was further removed under high vacuum for one hour. The lipid film was then suspended with 10 ml of endotoxin-free distilled water (Gibco, BRL, MD) at room temperature for one hour, and subsequently extruded using 0.8 μm, 0.4 μm and 0.2 μm pore size filters. The extruded multilammelar liposomes have sizes of 850 nm, 350 nm and 280 nm in diameter, respectively. Some of the extruded liposomes were further sonicated in a bath sonicator for 2-5 minutes to form unilamellar liposomes with a size of about 100 nm in diameter. The size of the liposomes were measured by 90° laser dynamic light scattering using a Zetamaster submicron particle analyzer.\n(§1) For transfection in vivo, normal CD-1 mouse was used as a model. The charge ration of lipid to DNA (±) was used throughout the study, assuming that 25 μg of DNA contains about 75 nmoles of negative charges, and one nmole of quaternary ammonium cationic lipid contains one nmole of positive charges. To prepare lipoplex for transfection, 25 μg or an indicated amounts of pCMV DNA was diluted in 100 μl of distilled water (endotoxin screened, Gibco). The diluted DNA solution was added to a polystyrene tube containing an indicated amount of cationic liposomes in 100 μl and was mixed immediately. The complexes were kept at + room temperature for 30 minutes before being administered to the animals via tail vein.\nLuciferase activity was measured in various organs, including lung, liver spleen, and heart from transfected animals, using a luciferase activity assay kit (Promega, Madison, Wis.) and a luminometer (Moonlight 3010). Organs were collected from the animals at 12 hours post transfection or at an indicated time after injection of lipoplex. About 0.2 g of liver were removed from the animal. One ml of 1× lysis buffer (Promega, Madison, Wis.), supplemented with 0.1% Triton-X100 was added to collected organs. Each organ was homogenized for 10-20 seconds using a handheld homogenizer (Dremel, Racine, Wis.) as it top speed (about 30,000 rpm). The samples were centrifuged in a microcentrifuge for three minutes. A 10 μL of the cleared supernatant, containing approximately 100-200 μg proteins, was measured for luciferase activity. Protein content in the supernatants was determined with BioRad dye reagent method, using albumin as a standard. The luciferase activities were normalized to the relative light unit per milligram of extracted protein."}, "CD-1 mice [1]": {"test_system": "CD-1 mice", "settings": "mouse, in vivo"}, "CD-1 mice [2]": {"test_system": "CD-1 mice", "type": "in vivo", "settings": "for safety of lipoplex for CD-1 mice: 25 μg of DNA, pure cationic lipid liposomes, 1:16 charge ratio; for Number of animals died per group (n = 3): CD-1 mice (20 g), charge ratio 16:1+/−, counted after 48 h; for relative toxicity of liposome compositions: escalating doses of lipoplexes, groups of three animals, first 48 hours", "description": "as §1\nTable 2 below lists the number of animals that expired during the first 48 hours of the experiment period, when escalating doses of the lipoplexes were given to a group of three animals. Lipoplex containing 25 μg of DNA and DOTMA or MMET liposomes at 1:16 charge ratio or with a mixture of cholesterol-DOTMA, or cholesterol-MMET at 1:4 charge ratios appear to be quite safe for CD-1 mice. Higher charge ratios of lipid to DNA and high doses of lipoplex were required to reach a lethal dose. […] In general, MMET containing liposomes were less toxic than the ones containing DOTMA."}}, "note": "Where two headings read alike, the source gives them in different places.", "data": [{"molecule": "CCCCCCCC/C=C\\CCCCCCCCOCC[N+]1(CCOCCCCCCCC/C=C\\CCCCCCCC)CCOCC1.[Cl-]", "note": "[DODHEM, N,N-di-(2-oleyloxyethyl)-mopholinium chloride]", "values": [{"measurement": "Relative Activity of MMET Analogues-Cholesterol Liposomes", "setting": "CD-1 mouse lungs", "value": 74.54}]}, {"molecule": "CCCCCCCC/C=C\\CCCCCCCC(=O)OCC(C[N+]1(C)CCOCC1)OC(=O)CCCCCCC/C=C\\CCCCCCCC", "note": "(centres unmarked) [MMES, N-3-methyl-1,2-dioleoyl-3-morpholinium propane]", "values": [{"measurement": "transfection level versus trimethylammonium counterparts (DOTMA, DOTAP)", "setting": "CD-1 mouse lungs; lungs", "value": "higher levels of transfection"}, {"measurement": "Relative Activity of MMET Analogues-Cholesterol Liposomes", "setting": "CD-1 mouse lungs", "value": 48.72}, {"measurement": "rank order of transfection activity in lungs", "setting": "CD-1 mouse lungs", "value": "MMET≧DOTMA>MMES>DOTAP>LADOP"}]}, {"molecule": "CCCCCCCC/C=C\\CCCCCCCCOCC(CN1CCOCC1)OCCCCCCCC/C=C\\CCCCCCCC", "note": "(centres unmarked) [dioleyl morpholino propanediol, 1,2-dioleyl-N-3-morpholino propane]", "values": [{"measurement": "in vivo transfection activity of MMET analogues (in words)", "setting": "CD-1 mouse lungs; formulated with cholesterol at 1:1 mole ratios, lungs", "value": "only weak activity"}]}, {"molecule": "CCCCCCCC/C=C\\CCCCCCCC(=O)OCC(CNC(=O)[C@@H](N)CCCCN)OC(=O)CCCCCCC/C=C\\CCCCCCCC", "note": "(stereo partly drawn) [LADOP, N-[(2,3-dioleoyloxy)propyl]-L-lysinamide]", "values": [{"measurement": "duration of transgene expression in lungs (disappearing by)", "setting": "CD-1 mouse lungs; liposome/DNA complex delivered intravenously, after transfection", "value": "≤ 48", "unit": "h"}, {"measurement": "rank order of transfection activity in lungs", "setting": "CD-1 mouse lungs", "value": "MMET≧DOTMA>MMES>DOTAP>LADOP"}, {"measurement": "gene expression after second intravenous transfection", "setting": "CD-1 mouse lungs; second injection at 48 hours after the first injection", "value": "almost identical gene expression and duration"}, {"measurement": "tolerance of repeated intravenous doses", "setting": "CD-1 mice [1]", "value": "tolerated repeated intravenous doses of DNA/LADOP complex well"}]}, {"molecule": "CCCCCCCC/C=C\\CCCCCCCC(=O)OCC(C[N+](C)(C)C)OC(=O)CCCCCCC/C=C\\CCCCCCCC", "note": "(centres unmarked) [DOTAP, 1,2-dioleoyl-3-trimethylammonium propane, reference compound]", "values": [{"measurement": "Relative Activity of MMET Analogues-Cholesterol Liposomes", "setting": "CD-1 mouse lungs", "value": 28.14}, {"measurement": "rank order of transfection activity in lungs", "setting": "CD-1 mouse lungs", "value": "MMET≧DOTMA>MMES>DOTAP>LADOP"}]}, {"molecule": "CCCCCCCC/C=C\\CCCCCCCC(=O)OCC(C[N+]1(C)CCCC1)OC(=O)CCCCCCC/C=C\\CCCCCCCC", "note": "(centres unmarked) [MPES, N-3-methyl-1,2-dioleoul-3-pyrrolinum propane]", "values": [{"measurement": "Relative Activity of MMET Analogues-Cholesterol Liposomes", "setting": "CD-1 mouse lungs", "value": 1.87}]}, {"molecule": "N-3-methyl-1,2-dioleyl-3-morpholinium propane chloride [MMET]", "values": [{"measurement": "safety of lipoplex for CD-1 mice", "setting": "CD-1 mice [2]", "value": "quite safe"}, {"measurement": "Number of animals died per group (n = 3)", "setting": "CD-1 mice [2]; DNA dosage 25 ug", "value": "(0)"}, {"measurement": "Number of animals died per group (n = 3)", "setting": "CD-1 mice [2]; DNA dosage 30 ug", "value": "(0)"}, {"measurement": "Number of animals died per group (n = 3)", "setting": "CD-1 mice [2]; DNA dosage 45 ug", "value": "(1)"}, {"measurement": "relative toxicity of liposome compositions", "setting": "CD-1 mice [2]", "value": "somewhere in between"}, {"measurement": "transfection level versus trimethylammonium counterparts (DOTMA, DOTAP)", "setting": "CD-1 mouse lungs; lungs", "value": "higher levels of transfection"}, {"measurement": "Relative Activity of MMET Analogues-Cholesterol Liposomes", "setting": "CD-1 mouse lungs", "value": 100}, {"measurement": "transfection activity versus prior art liposomes composed of DOTMA and/or DOTAP or DOTMA-cholesterol", "setting": "CD-1 mouse lungs; i.v. to mice, luciferase after 12 hours", "value": "much higher"}, {"measurement": "rank order of transfection activity in lungs", "setting": "CD-1 mouse lungs", "value": "MMET≧DOTMA>MMES>DOTAP>LADOP"}]}, {"molecule": "CCCCCCCC/C=C\\CCCCCCCCOCC(C[N+](C)(C)C)OCCCCCCCC/C=C\\CCCCCCCC.[Cl-]", "note": "(centres unmarked) [DOTMA, 1,2,-dioleyl-3-N,N,N-trimethyl amino propane chloride, reference compound]", "values": [{"measurement": "safety of lipoplex for CD-1 mice", "setting": "CD-1 mice [2]", "value": "quite safe"}, {"measurement": "Number of animals died per group (n = 3)", "setting": "CD-1 mice [2]; DNA dosage 25 ug", "value": "(0)"}, {"measurement": "Number of animals died per group (n = 3)", "setting": "CD-1 mice [2]; DNA dosage 30 ug", "value": "(2)"}, {"measurement": "Number of animals died per group (n = 3)", "setting": "CD-1 mice [2]; DNA dosage 45 ug", "value": "(3)"}, {"measurement": "relative toxicity of liposome compositions", "setting": "CD-1 mice [2]", "value": "somewhere in between"}, {"measurement": "rank order of transfection activity in lungs", "setting": "CD-1 mouse lungs", "value": "MMET≧DOTMA>MMES>DOTAP>LADOP"}]}, {"molecule": "CCCCCCCC/C=C\\CCCCCCCC[N+]1(CCCCCCCC/C=C\\CCCCCCCC)CCOCC1.[Cl-]", "note": "[DOMor, N,N-dioleylmorpholinium chloride]", "values": [{"measurement": "Relative Activity of MMET Analogues-Cholesterol Liposomes", "setting": "CD-1 mouse lungs", "value": 76.09}]}, {"molecule": "CCCCCCCC/C=C\\CCCCCCCCOCC(C[N+]1(C)CCCC1)OCCCCCCCC/C=C\\CCCCCCCC", "note": "(centres unmarked) [MPET, -3-methyl-1,2-dioleyl-3-pyrrolinium propane]", "values": [{"measurement": "Relative Activity of MMET Analogues-Cholesterol Liposomes", "setting": "CD-1 mouse lungs", "value": 55.49}]}]}
